This note sets out measurements from patent publication US6730672B2, “Aminoheterocyclic derivatives as antithrombotic or anticoagulant agents” (Zeneca Limited, priority 1994, dated 2004).

One data set deals with human thrombin (Homo sapiens, UniProt P00734). The data set can be described thus: Measurement of Thrombin Inhibition (chromogenic substrate S-2238). The note with it: test b), read-out: IC50 against thrombin. In kind it is biochemical. From the text:
b) Measurement of Thrombin Inhibition
The procedure of method a) was repeated except that human thrombin (0.005 Units/ml) and the chromogenic substrate S-2238 (KabiVitum AB) were employed.

The test system of data set [1] is human blood plasma. The data set is described as follows: Measurement of Anticoagulant Activity in vitro, activated partial thromboplastin time (APTT) test. In kind it is biochemical. The note with it: test c). Here is the method:
(§1) c) Measurement of Anticoagulant Activity
(§2) An in vitro assay whereby human venous blood was collected and added directly to a sodium citrate solution (3.2 g/100 ml, 9 parts blood to 1 part citrate solution). Blood plasma was prepared by contrifugation (1000 g, 15 minutes) and stored at 2-4° C. Conventional activated partial thromboplastin time (APTT) and prothrombin time (PT) tests were carried out in the presence of various concentrations of a test compound and the concentration of test compound required to double the clotting time, hereinafter referred to as CT2, was determined. In the APTT test, the test compound, blood plasma and APTT reagent were incubated at 37° C. for 3 minutes. Calcium chloride (0.02M) was added and fibrin formation and the time required for a clot to form were determined. In the PT test, an analogous procedure was followed except that tissue thromboplastin was used in place of APTT reagent.

The subject of data set [2] is Alderley Park Wistar rats. The data set can be described thus: Ex vivo Assay of Anticoagulant Activity (APTT and PT coagulation assays after dosing). The class given is in vivo. The conditions noted are these: test d), rat. Here is the method:
d) An ex vivo Assay of Anticoagulant Activity
The test compound was administered intravenously or orally to a group of Alderley Park Wistar rats. At various times thereafter animals were anaesthetised, blood was collected and APTT and PT coagulation assays analogous to those described hereinbefore were conducted.

Data set [3] concerns human blood plasma. The data set is described as follows: Measurement of Anticoagulant Activity in vitro, prothrombin time (PT) test. In kind it is biochemical. The conditions noted are these: test c). Here is the method: as §1, §2
For the next data set, the target named is human Factor Xa (Homo sapiens, UniProt P00742). The data set can be described thus: Measurement of Factor Xa Inhibition (chromogenic substrate S-2765). In kind it is biochemical. The conditions noted are these: test a), pH7.5, 37° C., read-out: IC50 against Factor Xa. As for the experimental part: a) Measurement of Factor Xa Inhibition
An in vitro assay system was carried out based on the method of Kettner et al., J. Biol. Chem., 1990, 265, 18289-18297, whereby various concentrations of a test compound were dissolved in a pH7.5 buffer containing 0.5% of polyethylene glycol and incubated at 37° C. with human Factor Xa (0.001 Units/ml, 0.3 ml) for 15 minutes. The chromogenic substrate S-2765 (KabiVitum AB, 20 μM) was added and the mixture was incubated at 37° C. for 20 minutes whilst the absorbance at 405 nm was measured. The maximum reaction velocity (Vmax) was determined and compared with that of a control sample containing no test compound. Inhibitor potency was expressed as an IC50 value.

Data set [4] has as its system Alderley Park Wistar rats. The data set can be described thus: In vivo Measurement of Antithrombotic Activity (thromboplastin/stasis-induced vena cava thrombus). The conditions noted are these: test e), rat, 5 mg/kg dose. Here is the method: e) An in vivo Measurement of Antithrombotic Activity
Thrombus formation was induced using an analogous method to that described by Vogel et al., Thromb. Research, 1989, 54, 399-410. A group of Alderley Park Wistar rats was anaesthetised and surgery was performed to expose the vena cava. […] Test compound was administered intravenously or orally. At an appropriate time thereafter tissue thromboplastin (1 ml/kg) was administered into the jugular vein and, after 10 seconds, the two sutures were tightened to induce stasis within the ligated portion of vena cava. After 10 minutes the ligated tissue was excised and the thrombus therein was isolated, blotted and weighed.

SMILES strings stand for the structures.

Sequence of human Factor Xa (P00742 235-488 limits assumed): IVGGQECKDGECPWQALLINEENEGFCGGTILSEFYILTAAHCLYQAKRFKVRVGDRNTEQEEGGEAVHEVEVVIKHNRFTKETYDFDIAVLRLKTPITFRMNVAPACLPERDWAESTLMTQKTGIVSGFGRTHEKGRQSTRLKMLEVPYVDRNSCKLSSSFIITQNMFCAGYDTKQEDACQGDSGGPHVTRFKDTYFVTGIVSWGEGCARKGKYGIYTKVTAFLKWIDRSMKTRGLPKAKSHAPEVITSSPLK
Sequence of human Factor Xa (P00742 41-179 partner limits assumed): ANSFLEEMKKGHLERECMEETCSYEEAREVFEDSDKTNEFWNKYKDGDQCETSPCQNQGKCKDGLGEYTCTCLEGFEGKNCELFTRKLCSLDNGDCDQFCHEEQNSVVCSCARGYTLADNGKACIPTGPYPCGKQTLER

On to `O=C(CNS(=O)(=O)c1ccc2ccccc2c1)NC(CNC(=O)C1CCN(c2ccncc2)CC1)C(=O)N1CCCCC1` (centres unmarked) [Example 1, 2-(2-naphthalenesulphonamido)-N-{1-piperidinocarbonyl-2-[1-(4-pyridyl)-piperidin-4-ylcarbonylamino]ethyl}acetamide], for which the figures for the IC50 at human thrombin and on human Factor Xa were greater than 100000 nM and 300 nM, respectively. The “CT2 (APTT), concentration required to double the clotting time” value (from here on “CT2 (APTT), concentration required”) in the data set with human blood plasma [1] worked out at 62 µM. Moreover, the “clotting time following intravenous administration” value in data set [2] (10 mg/kg dose) is listed as “increased clotting time”. In addition, the “CT2 (PT), concentration required to double the clotting time” value (shortened to “CT2 (PT), concentration required”) in the data set with human blood plasma [3] was determined as 14 µM. Also, the “thrombus weight following intravenous administration” value in data set [4] was “reduced thrombus weight”.

Consider `O=C(C1CCN(c2ccncc2)CC1)N1CCN(S(=O)(=O)/C=C/c2ccc(Cl)cc2)CC1` [Example 39, Compound No. 2, 1-[(E)-4-chlorostyrylsulphonyl]-4-[-1-(4-pyridyl)piperidin-4-ylcarbonyl]piperazine], for which the IC50 at human thrombin is greater than 100000 nM; at human Factor Xa, 12 nM. Also, the “CT2 (APTT), concentration required” value in the data set on human blood plasma [1] is 1.8 µM. Further, in data set [2] (5 mg/kg dose), the “clotting time following intravenous administration” value is “increased clotting time”. Further, the “CT2 (PT), concentration required” value in the data set on human blood plasma [3] was 1 µM. Also, the “thrombus weight following intravenous administration” value in data set [4] was “reduced thrombus weight”.

In the case of `O=C(O)C1CN(S(=O)(=O)c2ccc3cc(Cl)ccc3c2)CCN1C(=O)C1CCN(c2ccncc2)CC1` (centres unmarked) [Example 63, 2-carboxy-4-(6-chloronaphth-2-ylsulphonyl)-1-[1-(4-pyridyl)piperidin-4-ylcarbonyl]-piperazine], the melting point was 215 to 220 °C (dec.). Besides, the IC50 on human thrombin is greater than 10000 nM. In addition, the “clotting time following intravenous administration” value in data set [2] (5 mg/kg dose) is given as “increased clotting time”. The “CT2 (PT), concentration required” value in the data set on human blood plasma [3] stood at 4.6 µM. Also, the IC50 on human Factor Xa was determined as 8 nM. In addition, the “thrombus weight following intravenous administration” value in data set [4] is reported as “reduced thrombus weight”.

`O=C(C1CCN(c2ccncc2)CC1)N1CCN(S(=O)(=O)c2ccc(-c3ccc(Cl)cc3)cc2)CC1` [Example 41, Compound No. 3, 1-(4′-chloro-4-biphenylylsulphonyl)-4-[1-(4-pyridyl)-piperidin-4-ylcarbonyl]piperazine]: the values for the IC50 at human thrombin and on human Factor Xa were 83000 nM and 10 nM, respectively.

Take `CCOC(=O)C1CN(S(=O)(=O)c2ccc3cc(Cl)ccc3c2)CCN1C(=O)C1CCN(c2ccncc2)CC1` (centres unmarked) [Example 62, 4-(6-chloronaphth-2-ylsulphonyl)-2-ethoxycarbonyl-1-[1-(4-pyridyl)-piperidin-4-ylcarbonyl]piperazine]: the IC50 is greater than 10000 nM at human thrombin and 2 nM on human Factor Xa. The “clotting time following intravenous administration” value in data set [2] (5 mg/kg dose) was “increased clotting time”. Besides, in the data set with human blood plasma [3], the “CT2 (PT), concentration required” value was found to be 0.7 µM.

On to `O=C(C1CCN(c2ccncc2)CC1)N1CCN(S(=O)(=O)c2ccc3cc(Cl)ccc3c2)CC1` [Example 40, Compound No. 5, 1-(6-chloronaphth-2-ylsulphonyl)-4-[1-(4-pyridyl)piperidin-4-ylcarbonyl]piperazine], for which the values for the IC50 at human thrombin and at human Factor Xa were 34000 nM and 3 nM, respectively. Moreover, the “CT2 (APTT), concentration required” value with human blood plasma [1] turned out to be 1.2 µM. In data set [2] (5 mg/kg dose), the “clotting time following intravenous administration” value was “increased clotting time”. Also, the “CT2 (PT), concentration required” value in the data set with human blood plasma [3] stood at 0.5 µM.
